# Calls of active or inactive are those of the source.
# Key:
# Danio rerio = test: In Vivo Angiogenesis Dose-Response Confirmation. [Related pubchem assays: 732 (Assay preceding this confirmatory assay.)]; assay type: functional, organism-based
# Estrogen receptor = target: T1, Estrogen receptor (Homo sapiens, UniProt P03372);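 also: potency for inhibiting coactivator peptide recruitment to the receptor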
# T1 sequence (P03372 whole entry): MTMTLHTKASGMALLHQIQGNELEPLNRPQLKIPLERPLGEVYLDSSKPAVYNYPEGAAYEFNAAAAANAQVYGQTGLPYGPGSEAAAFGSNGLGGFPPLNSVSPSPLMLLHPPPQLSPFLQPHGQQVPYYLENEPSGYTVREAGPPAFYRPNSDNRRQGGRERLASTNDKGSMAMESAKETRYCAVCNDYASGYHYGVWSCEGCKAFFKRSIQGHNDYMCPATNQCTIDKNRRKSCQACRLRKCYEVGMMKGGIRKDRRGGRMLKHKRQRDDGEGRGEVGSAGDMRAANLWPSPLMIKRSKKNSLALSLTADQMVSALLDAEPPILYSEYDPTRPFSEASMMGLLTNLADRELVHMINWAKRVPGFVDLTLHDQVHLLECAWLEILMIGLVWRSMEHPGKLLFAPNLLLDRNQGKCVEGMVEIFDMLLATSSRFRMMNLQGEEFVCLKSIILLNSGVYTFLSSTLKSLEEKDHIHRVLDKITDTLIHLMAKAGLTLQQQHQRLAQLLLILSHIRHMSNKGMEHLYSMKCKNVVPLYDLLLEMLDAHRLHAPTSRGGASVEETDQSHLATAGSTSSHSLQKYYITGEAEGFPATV
# Estrogen receptor beta [1] = target: T2, Estrogen receptor beta (Homo sapiens, UniProt Q92731); test: blockers of SRC-3 recruitment to ERβ – biochemical, ELISA, streptavidin-HRP readout, orthogonal assay, confirmation (AID 1060)
# T2 sequence (Q92731 whole entry): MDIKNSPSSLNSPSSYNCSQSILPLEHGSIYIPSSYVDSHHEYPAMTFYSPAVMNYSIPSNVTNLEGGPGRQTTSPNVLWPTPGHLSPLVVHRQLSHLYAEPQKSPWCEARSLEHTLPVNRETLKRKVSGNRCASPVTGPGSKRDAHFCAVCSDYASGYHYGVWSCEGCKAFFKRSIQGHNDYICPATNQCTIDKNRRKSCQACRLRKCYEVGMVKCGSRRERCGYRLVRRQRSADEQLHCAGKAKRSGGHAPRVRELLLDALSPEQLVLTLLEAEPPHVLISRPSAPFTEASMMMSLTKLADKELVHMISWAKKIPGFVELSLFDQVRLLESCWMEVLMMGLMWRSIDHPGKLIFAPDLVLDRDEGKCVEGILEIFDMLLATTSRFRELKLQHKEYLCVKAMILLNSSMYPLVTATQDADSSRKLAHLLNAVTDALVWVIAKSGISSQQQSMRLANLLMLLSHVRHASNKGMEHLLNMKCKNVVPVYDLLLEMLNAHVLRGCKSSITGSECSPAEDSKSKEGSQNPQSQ
# Estrogen receptor beta [2] = target: T2, Estrogen receptor beta
# [3] = target: Aryl hydrocarbon receptor (Homo sapiens, UniProt P35869); test: Luminescence-based cell-based high throughput dose response assay for activators of the Aryl Hydrocarbon Receptor (AHR). [Related pubchem assays: 2796 (Primary screen (AHR activators in singlicate)), 2845 (Confirmation screen (AHR activators in triplicate)), 434939 (Counterscreen (PXR activators in triplicate)), 2804 (Summary (AHR activators))]; assay type: ADME
# [4] = reduced cellular PGC1a acetyl-lysine signal – cell-based, cherry-picked samples, dose response (AID 720514); assay type: functional;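 also: potency may reflect raised or lowered acetylation signal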
# [5] = target: T3, Replicative DNA helicase DnaB (Mycobacterium tuberculosis, UniProt P9WMR3); test: DnaB intein splicing inhibitors, dose response, biochemical, cell-free fluorescence (AID 449749); assay type: functional
# T3 sequence (P9WMR3 whole entry): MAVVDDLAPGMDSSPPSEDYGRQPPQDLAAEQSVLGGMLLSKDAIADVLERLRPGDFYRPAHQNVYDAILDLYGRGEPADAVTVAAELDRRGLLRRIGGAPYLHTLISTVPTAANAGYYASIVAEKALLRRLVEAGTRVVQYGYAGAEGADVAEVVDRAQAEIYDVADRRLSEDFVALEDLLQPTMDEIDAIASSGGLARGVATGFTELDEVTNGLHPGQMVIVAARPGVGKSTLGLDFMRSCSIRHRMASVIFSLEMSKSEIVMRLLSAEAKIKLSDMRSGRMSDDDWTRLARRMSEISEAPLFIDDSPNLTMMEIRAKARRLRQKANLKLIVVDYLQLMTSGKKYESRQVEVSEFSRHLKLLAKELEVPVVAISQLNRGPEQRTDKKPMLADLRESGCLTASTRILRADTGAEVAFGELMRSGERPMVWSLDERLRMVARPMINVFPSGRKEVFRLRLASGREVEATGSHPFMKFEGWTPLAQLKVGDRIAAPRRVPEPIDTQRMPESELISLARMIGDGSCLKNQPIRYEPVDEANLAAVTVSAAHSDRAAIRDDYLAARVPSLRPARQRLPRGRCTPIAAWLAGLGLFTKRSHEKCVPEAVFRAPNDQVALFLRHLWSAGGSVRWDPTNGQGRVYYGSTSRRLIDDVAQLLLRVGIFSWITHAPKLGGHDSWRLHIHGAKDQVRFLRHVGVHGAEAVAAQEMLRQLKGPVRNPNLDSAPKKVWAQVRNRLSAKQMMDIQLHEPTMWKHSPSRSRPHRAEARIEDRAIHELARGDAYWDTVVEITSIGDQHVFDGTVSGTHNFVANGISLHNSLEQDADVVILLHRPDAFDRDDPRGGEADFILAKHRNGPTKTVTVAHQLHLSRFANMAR
# [6] = NIH-3T3 fibroblast cytotoxicity, dose response, cytotoxicity control, cell-based, fluorescence, Alamar Blue, secondary assay (AID 2327); assay type: functional;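 also: NIH-3T3 mouse fibroblasts cultured with fluconazole at 8 µg/mL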
# [7] = Luminescence Cell-Based Dose Response HTS to Identify Activators of Luciferase Translation or Activity in H4 […] Cells. [Related pubchem assays: 1829 (Project Summary), 1814 (Primary HTS)]; assay type: functional
# [8] = NIH3T3 cell viability loss – ATP luminescence, mouse fibroblasts, counter-screen, dose response (AID 2010); assay type: functional, cell-based;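 also: cells exposed to compound for about 90 hours before reading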
# Protein RecA = target: T4, Protein RecA (Mycobacterium tuberculosis, UniProt P9WHJ3); test: Fluorescence Cell-Free Homogeneous Dose Retest to Identify Inhibitors of RecA-Intein Splicing Activity. [Related pubchem assays (depositor defined):AID2097, AID2223, AID489010, AID492950]; assay type: functional
# T4 sequence (P9WHJ3 whole entry): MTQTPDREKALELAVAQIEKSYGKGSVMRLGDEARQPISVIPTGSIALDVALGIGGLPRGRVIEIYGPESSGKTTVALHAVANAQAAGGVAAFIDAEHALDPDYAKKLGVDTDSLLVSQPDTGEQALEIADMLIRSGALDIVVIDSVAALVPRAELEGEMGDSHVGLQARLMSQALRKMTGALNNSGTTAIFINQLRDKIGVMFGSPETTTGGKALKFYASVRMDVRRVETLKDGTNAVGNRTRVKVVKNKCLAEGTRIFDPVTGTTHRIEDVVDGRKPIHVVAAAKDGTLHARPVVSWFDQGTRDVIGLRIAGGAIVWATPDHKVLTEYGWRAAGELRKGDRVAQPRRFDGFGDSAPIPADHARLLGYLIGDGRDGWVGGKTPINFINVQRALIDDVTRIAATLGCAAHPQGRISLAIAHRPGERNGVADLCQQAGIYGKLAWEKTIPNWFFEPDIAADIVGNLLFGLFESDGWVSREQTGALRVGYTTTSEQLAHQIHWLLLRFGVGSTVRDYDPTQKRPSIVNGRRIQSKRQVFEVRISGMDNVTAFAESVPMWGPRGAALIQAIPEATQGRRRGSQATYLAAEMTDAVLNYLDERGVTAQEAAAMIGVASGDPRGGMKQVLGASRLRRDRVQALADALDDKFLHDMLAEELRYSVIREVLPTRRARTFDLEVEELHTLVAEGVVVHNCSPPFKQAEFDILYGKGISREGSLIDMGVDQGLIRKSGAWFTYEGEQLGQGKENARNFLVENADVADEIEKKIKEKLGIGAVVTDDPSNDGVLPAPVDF
# [9] = Trypanosoma cruzi growth suppression in host cells – NIH3T3 host cells, beta-gal luminescence, confirmation (AID 2044); assay type: functional, cell-based;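 also: intracellular parasites grown in NIH/3T3 mouse fibroblasts as host cells; luminescent beta-galactosidase reporter signal from transgenic T. cruzi replicating inside host cells; inhibitors lower the luminescence signal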
# [10] = Luminescence Cell-Based Dose Confirmation HTS to Identify Activators of 5'UTR Stem-Loop Driven Alpha-Synuclein mRNA Translation in H4 Neuroglioblastoma Cells. [Related pubchem assays: 1829 (Project Summary), 1814 (Primary HTS)]; assay type: functional
# H4 = test: Luminescence Cell-Based Dose Response HTS to Identify Activators of 5'UTR Stem-Loop Driven Prion Protein mRNA Translation in H4 Neuroglioblastoma Cells. [Related pubchem assays: 1829 (Project Summary), 1814 (Primary HTS)]; assay type: functional; conditions: Homo sapiens
# [11] = fluconazole-exposed Candida albicans growth modulators – fluorescence, retest, confirmation (AID 2467); assay type: functional, cell-based
# Major prion protein = Major prion protein (Homo sapiens, UniProt P04156); assay type: functional, cell-based
# Genome polyprotein = Genome polyprotein (Hepatitis C virus, UniProt Q2Q167); test: disruption of hepatitis C core self-association – biochemical, TR-FRET, dose response (AID 2159); parameters: species or system Hepacivirus hominis;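 also: blocks dimerization of HCV core protein measured by TR-FRET between tagged core106 pairs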
# Sequence of Genome polyprotein (Q2Q167 whole entry): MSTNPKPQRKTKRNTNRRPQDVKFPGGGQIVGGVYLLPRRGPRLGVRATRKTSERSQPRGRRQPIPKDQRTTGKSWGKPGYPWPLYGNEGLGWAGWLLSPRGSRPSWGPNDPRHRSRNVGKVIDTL
# [12] = target: Mitogen-activated protein kinase 10 (Homo sapiens, UniProt P53779); test: Dose response biochemical screening assay for inhibitors of c-Jun N-Terminal Kinase 3 (JNK3). [Related pubchem assays: 746 ]
# Sequence of Mitogen-activated protein kinase 10 (P53779 whole entry): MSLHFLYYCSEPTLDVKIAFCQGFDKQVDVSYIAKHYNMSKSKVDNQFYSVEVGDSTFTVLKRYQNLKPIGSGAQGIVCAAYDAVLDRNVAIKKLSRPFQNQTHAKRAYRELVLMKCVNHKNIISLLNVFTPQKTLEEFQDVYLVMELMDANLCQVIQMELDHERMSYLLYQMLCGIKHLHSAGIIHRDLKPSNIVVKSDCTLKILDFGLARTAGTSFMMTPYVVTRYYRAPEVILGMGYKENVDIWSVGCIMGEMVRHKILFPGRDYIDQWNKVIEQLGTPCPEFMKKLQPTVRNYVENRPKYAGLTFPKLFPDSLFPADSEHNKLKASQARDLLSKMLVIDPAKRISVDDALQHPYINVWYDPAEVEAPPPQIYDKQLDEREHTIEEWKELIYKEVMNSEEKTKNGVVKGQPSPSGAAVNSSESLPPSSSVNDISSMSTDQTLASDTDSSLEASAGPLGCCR
# [13] = DRD fibroblast viability loss – cell-based, non-viral oncogenic, luminescence, dose response (AID 1934); assay type: functional; conditions: Homo sapiens
# [14] = viability loss in Vero cells – cytotoxicity control for Vif-APOBEC3G degradation inhibitor project, dose response (AID 1117358); assay type: functional; conditions: Vero
# BJ [15] = test: cells; assay type: functional, cell-based; conditions: Homo sapiens
# BJ [16] = test: BJ-TERT-LT-ST fibroblast viability loss – cell-based, RAS-independent, luminescence, dose response (AID 1935); assay type: functional; conditions: Homo sapiens;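 also: BJ fibroblasts immortalized with TERT plus LT and ST oncogenes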
# BJ [17] = test: BJ-TERT fibroblast viability loss – cell-based, RAS-independent, luminescence, dose response (AID 1933); assay type: functional; conditions: Homo sapiens
# Cytochrome P450 2C19 = Cytochrome P450 2C19 (Homo sapiens, UniProt P33261); test: qHTS Assay for Inhibitors and Substrates of Cytochrome P450 2C19. [Related pubchem assays: 410 ]; assay type: ADME; conditions: read-out: Potency
# Sequence of Cytochrome P450 2C19 (P33261 whole entry): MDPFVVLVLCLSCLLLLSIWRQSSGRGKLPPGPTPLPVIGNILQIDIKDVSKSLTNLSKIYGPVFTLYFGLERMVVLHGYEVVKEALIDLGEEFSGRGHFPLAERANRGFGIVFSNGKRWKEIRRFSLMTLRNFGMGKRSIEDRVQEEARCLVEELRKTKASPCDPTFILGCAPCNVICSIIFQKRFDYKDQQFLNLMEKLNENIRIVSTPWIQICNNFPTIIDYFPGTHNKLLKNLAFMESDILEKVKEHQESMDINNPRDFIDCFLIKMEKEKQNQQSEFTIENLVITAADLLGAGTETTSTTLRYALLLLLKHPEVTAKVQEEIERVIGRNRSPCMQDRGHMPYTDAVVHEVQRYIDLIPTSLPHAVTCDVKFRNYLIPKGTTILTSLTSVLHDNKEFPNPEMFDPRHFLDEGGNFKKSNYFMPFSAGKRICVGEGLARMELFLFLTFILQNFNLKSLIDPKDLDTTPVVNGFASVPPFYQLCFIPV
# Cytochrome P450 3A4 = Cytochrome P450 3A4 (Homo sapiens, UniProt P08684); conditions: Potency;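 also: confirmatory qHTS run detecting inhibitors and substrates of CYP3A4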
# Sequence of Cytochrome P450 3A4 (P08684 whole entry): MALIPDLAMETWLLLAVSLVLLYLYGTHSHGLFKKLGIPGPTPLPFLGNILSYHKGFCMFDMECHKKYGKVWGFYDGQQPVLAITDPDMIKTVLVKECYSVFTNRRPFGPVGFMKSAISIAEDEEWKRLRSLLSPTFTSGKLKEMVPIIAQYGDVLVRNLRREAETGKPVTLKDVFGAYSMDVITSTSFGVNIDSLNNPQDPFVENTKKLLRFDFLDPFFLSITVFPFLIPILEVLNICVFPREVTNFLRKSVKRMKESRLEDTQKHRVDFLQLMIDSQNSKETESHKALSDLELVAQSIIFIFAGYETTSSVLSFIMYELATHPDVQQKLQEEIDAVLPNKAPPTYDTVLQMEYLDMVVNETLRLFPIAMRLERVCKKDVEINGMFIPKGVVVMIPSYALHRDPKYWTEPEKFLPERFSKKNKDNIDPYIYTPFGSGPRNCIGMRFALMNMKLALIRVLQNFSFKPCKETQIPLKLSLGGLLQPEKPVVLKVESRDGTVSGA
# Cytochrome P450 2D6 = Cytochrome P450 2D6 (Homo sapiens, UniProt P10635); test: qHTS Assay for Inhibitors and Substrates of Cytochrome P450 2D6. [Related pubchem assays: 410 ]; assay type: ADME; conditions: read-out: Potency
# Sequence of Cytochrome P450 2D6 (P10635 whole entry): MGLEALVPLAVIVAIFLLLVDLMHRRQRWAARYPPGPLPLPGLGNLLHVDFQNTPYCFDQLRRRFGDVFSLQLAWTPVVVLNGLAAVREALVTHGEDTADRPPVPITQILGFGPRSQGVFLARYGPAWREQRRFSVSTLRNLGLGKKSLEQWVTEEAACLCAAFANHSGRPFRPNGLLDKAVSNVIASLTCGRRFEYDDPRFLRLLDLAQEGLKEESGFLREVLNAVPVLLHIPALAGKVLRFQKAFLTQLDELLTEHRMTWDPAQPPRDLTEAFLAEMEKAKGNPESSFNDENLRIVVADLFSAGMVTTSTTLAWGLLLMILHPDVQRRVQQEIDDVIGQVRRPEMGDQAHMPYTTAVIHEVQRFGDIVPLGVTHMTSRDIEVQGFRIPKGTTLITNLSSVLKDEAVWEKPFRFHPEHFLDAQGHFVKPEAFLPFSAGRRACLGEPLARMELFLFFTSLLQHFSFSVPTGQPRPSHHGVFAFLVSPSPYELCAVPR
# Protein Tat = Protein Tat (Human immunodeficiency virus type 1 group M subtype B (isolate HXB2)(HIV-1), UniProt P04608); assay type: functional;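 also: tat binding to TAR RNA read out by fluorescence polarization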
# Sequence of Protein Tat (P04608 whole entry): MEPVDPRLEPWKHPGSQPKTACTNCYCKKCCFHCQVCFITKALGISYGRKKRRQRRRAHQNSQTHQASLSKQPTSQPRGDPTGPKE
# Large T antigen = Large T antigen (Simian virus 40, UniProt P03070); assay type: functional, Betapolyomavirus macacae;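 also: Confirmatory-stage PubChem screen for compounds that inhibit SV40 T antigen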
# Sequence of Large T antigen (P03070 whole entry): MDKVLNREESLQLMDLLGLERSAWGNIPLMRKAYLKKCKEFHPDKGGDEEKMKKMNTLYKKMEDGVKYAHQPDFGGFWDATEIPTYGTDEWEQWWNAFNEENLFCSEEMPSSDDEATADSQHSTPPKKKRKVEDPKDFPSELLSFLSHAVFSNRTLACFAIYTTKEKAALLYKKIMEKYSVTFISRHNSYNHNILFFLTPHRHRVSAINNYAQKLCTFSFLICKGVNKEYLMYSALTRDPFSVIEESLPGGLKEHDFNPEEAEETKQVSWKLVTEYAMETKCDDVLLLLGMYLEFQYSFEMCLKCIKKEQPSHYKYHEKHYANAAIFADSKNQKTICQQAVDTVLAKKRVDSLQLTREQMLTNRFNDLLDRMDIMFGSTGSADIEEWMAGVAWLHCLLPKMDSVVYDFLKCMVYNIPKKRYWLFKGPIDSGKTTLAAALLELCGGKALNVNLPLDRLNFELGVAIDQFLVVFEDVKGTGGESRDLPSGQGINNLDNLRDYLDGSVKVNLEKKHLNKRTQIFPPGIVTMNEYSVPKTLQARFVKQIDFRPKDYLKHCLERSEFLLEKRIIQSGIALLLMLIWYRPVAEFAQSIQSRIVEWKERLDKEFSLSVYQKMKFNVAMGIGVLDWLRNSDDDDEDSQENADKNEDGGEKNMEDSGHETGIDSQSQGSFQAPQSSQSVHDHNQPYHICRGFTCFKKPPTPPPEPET
# SUMO-activating enzyme [18] = target: T5, SUMO-activating enzyme (Homo sapiens, UniProt Q9UBT2); test: blockers of SAE1/SAE2–UBC9 SUMO transfer – biochemical, HTRF, uHTS, primary screen (AID 2006); assay type: protein-complex assay
# T5 sequence (Q9UBE0 whole entry): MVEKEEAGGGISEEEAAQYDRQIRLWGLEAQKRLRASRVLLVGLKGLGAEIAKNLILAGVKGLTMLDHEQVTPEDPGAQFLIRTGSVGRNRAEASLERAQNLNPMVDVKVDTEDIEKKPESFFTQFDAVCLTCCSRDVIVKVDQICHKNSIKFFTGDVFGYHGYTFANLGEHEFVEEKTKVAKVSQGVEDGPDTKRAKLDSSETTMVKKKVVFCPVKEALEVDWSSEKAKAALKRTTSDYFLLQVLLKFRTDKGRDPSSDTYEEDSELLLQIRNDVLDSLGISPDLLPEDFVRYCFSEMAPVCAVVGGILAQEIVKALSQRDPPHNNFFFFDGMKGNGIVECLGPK
# T5 sequence (Q9UBT2 whole entry): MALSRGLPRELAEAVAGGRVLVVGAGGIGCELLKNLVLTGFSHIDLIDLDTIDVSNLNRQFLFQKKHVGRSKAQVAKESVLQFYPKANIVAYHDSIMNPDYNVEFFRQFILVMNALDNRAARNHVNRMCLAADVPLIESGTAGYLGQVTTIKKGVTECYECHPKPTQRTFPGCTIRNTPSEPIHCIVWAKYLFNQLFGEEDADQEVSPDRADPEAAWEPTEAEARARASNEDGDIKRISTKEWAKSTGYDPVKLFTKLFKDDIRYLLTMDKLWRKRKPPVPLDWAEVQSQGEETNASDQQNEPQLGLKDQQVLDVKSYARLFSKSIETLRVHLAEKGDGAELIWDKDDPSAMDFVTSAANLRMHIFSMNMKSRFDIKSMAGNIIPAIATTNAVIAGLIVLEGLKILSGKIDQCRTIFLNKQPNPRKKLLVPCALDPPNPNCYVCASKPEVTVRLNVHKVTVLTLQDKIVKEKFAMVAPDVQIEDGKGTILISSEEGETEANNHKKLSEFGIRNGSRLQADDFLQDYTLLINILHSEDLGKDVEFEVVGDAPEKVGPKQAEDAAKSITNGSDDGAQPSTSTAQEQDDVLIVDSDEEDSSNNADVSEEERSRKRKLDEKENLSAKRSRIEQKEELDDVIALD
# SUMO-activating enzyme [19] = target: T5, SUMO-activating enzyme; test: blockers of UBC9-mediated SUMO conjugation – biochemical, AlphaScreen, SUMOylation inhibitor project, confirmation (AID 2018); assay type: functional
compound,measurement,setting,value
O=C1Nc2ccccc2/C1=C1/Nc2ccc(Br)cc2/C1=N\OCCN1CCNCC1,IC50,Danio rerio,> 30 µM (not active)
O=C(CSc1nc2scc(-c3ccco3)c2c(=O)n1-c1ccccc1)NCC1CCCO1 (configuration not stated),IC50,Estrogen receptor,30.1 µM (not active)
same,IC50,Estrogen receptor beta [1],102 µM (not active)
same,IC50,Estrogen receptor beta [2],22.1 µM (active)
ONC1c2cc(Cl)ccc2-c2c(Cl)cc(Cl)cc21 (configuration not stated),IC50,Danio rerio,< 0.3 µM (not active)
CCCc1nn(C)c(C(=O)Nc2cccc3ccccc23)c1Cl,EC50,[3],5.22 µM (active)
O=C(OCn1ncc(Cl)c(Cl)c1=O)c1ccc(C(F)(F)F)cc1,AC50,[4],20.6 µM (active)
same,AC50,[5],1.23 µM (active)
same,EC50,[6],4.13 µM (inconclusive)
same,EC50,[7],> 120 µM (not active)
same,EC50,[8],1.89 µM (active)
same,EC50,Protein RecA,0.308 µM (active)
same,EC50,[9],1.92 µM (active)
same,EC50,[10],> 120 µM (not active)
same,EC50,H4,> 120 µM (not active)
same,EC50,[11],> 38 µM (not active)
CCOC(=O)c1sc(NC(=S)NC(=O)C2CCCC2)cc1C,IC50,Major prion protein,5.29 µM (active)
same,IC50,Genome polyprotein,> 49.8 µM (not active)
same,IC50,cells,> 138 µM (inactive)
c1ccc(-c2onc3cc4c(cc23)OCCO4)cc1,IC50,[12],50.1 µM (not active)
c1ccc(Cc2nnc3sc(-c4ccco4)nn23)cc1,IC50,Estrogen receptor beta [1],15.2 µM (not active)
same,IC50,Estrogen receptor beta [2],11.4 µM (active)
CCCOc1ccccc1C1CC(=O)NC2=C1C(=O)CCC2 (configuration not stated),EC50,[13],32.7 µM (active)
same,CC50,[14],> 40 µM (active)
same,EC50,BJ [15],44.4 µM (active)
same,EC50,BJ [16],17.2 µM (active)
same,EC50,BJ [17],16 µM (active)
COC(=O)N1CCc2cc(OC)c(OC)cc2C1Cc1ccc(OC)cc1 (configuration not stated),AC50,Cytochrome P450 2C19,3.98 µM (inconclusive)
same,AC50,Cytochrome P450 3A4,3.98 µM (inconclusive)
same,AC50,Cytochrome P450 2D6,3.16 µM (inconclusive)
Oc1c2nc3cccc(Cl)c3c-2ncn1Cc1ccncc1,IC50,[12],> 93.1 µM (not active)
Cc1ccsc1/C=N/c1ccc(O)cc1,IC50,Protein Tat,30.5 µM (inconclusive)
same,IC50,Large T antigen,31.2 µM (active)
same,IC50,SUMO-activating enzyme [18],9.41 µM (active)
same,IC50,SUMO-activating enzyme [19],2.36 µM (active)
same,EC50,Protein RecA,> 380 µM (inconclusive)
Nc1ccccc1NC1=CC(=O)CC(c2ccco2)C1 (configuration not stated),IC50,Protein Tat,31.6 µM (inconclusive)

# Reference: ChEMBL document CHEMBL1201862, “PubChem BioAssay data set” (2004)
